Results from PMC6941148 (Journal of medicinal chemistry, 2019).

What was measured:
MDR HIV-1 variant VSL20 = experiment: Cell-based antiviral assay; conditions: relative to corresponding isobutyl analogues 12 and 13
[1] = biological target: HIV-1 protease I84V variant (Human immunodeficiency virus type 1 group M subtype B, UniProt P12497, I572V/Q495K); type: biochemical
WT HIV-1 strain NL4-3 = experiment: Cell-based antiviral assay; conditions: relative to DRV

Row | SMILES | fold loss in potency against VSL20 compared to analogues 12 and 13 (MDR HIV-1 variant VSL20) | fold less active than DRV against wild-type HIV-1 (WT HIV-1 strain NL4-3) | also measured
1 | CC[C@H](C)CN(C[C@@H](O)[C@H](Cc1ccccc1)NC(=O)O[C@H]1CO[C@H]2OCC[C@H]21)S(=O)(=O)c1ccc([C@H](C)O)cc1 [Compound 14, (3R,3aS,6aR)-Hexahydrofuro[2,3-b]furan-3-yl ((2S,3R)-3-hydroxy-4-((4-((S)-1-hydroxyethyl)-N-((S)-2-methylbutyl)phenyl)sulfonamido)-1-phenylbutan-2-yl)carbamate] | 2 fold | – | –
2 | CC[C@H](C)CN(C[C@@H](O)[C@H](Cc1ccccc1)NC(=O)O[C@H]1CO[C@H]2OCC[C@H]21)S(=O)(=O)c1ccc([C@@H](C)O)cc1 [Compound 15, (3R,3aS,6aR)-Hexahydrofuro[2,3-b]furan-3-yl ((2S,3R)-3-hydroxy-4-((4-((R)-1-hydroxyethyl)-N-((S)-2-methylbutyl)phenyl)sulfonamido)-1-phenylbutan-2-yl)carbamate] | 2 fold | – | –
3 | CC(C)CN(C[C@@H](O)[C@H](Cc1ccccc1)NC(=O)O[C@H]1CO[C@H]2OCC[C@H]21)S(=O)(=O)c1ccc([C@H](O)CO)cc1 [Compound 23, (3R,3aS,6aR)-Hexahydrofuro[2,3-b]furan-3-yl ((2S,3R)-4-((4-((S)-1,2-dihydroxyethyl)-N-isobutylphenyl)sulfonamido)-3-hydroxy-1-phenylbutan-2-yl)carbamate] | – | – | fold less active against the I84V protease than the P2′ epimer 22 ([1]; I84V protease, relative to diastereoisomer 22): about 3 fold
4 | CCC(CC)CN(C[C@@H](O)[C@H](Cc1ccccc1)NC(=O)O[C@H]1CO[C@H]2OCC[C@H]21)S(=O)(=O)c1ccc([C@@H](O)CO)cc1 [Compound 26, (3R,3aS,6aR)-Hexahydrofuro[2,3-b]furan-3-yl ((2S,3R)-4-((4-((R)-1,2-dihydroxyethyl)-N-(2-ethylbutyl)phenyl)sulfonamido)-3-hydroxy-1-phenylbutan-2-yl)carbamate] | – | 8 fold | –
5 | CCC(CC)CN(C[C@@H](O)[C@H](Cc1ccccc1)NC(=O)O[C@H]1CO[C@H]2OCC[C@H]21)S(=O)(=O)c1ccc([C@H](O)CO)cc1 [Compound 27, (3R,3aS,6aR)-Hexahydrofuro[2,3-b]furan-3-yl ((2S,3R)-4-((4-((S)-1,2-dihydroxyethyl)-N-(2-ethylbutyl)phenyl)sulfonamido)-3-hydroxy-1-phenylbutan-2-yl)carbamate] | – | 8 fold | fold less potent against the protease variants tested than the (R)-epimer 26 ([1]; I84V and I50V/A71V variants, relative to 26): 2–3 fold
